Where two headings read alike, the source gives them in different places. Where a SMILES comes first, the peptide text is derived from it.
Assays:
[1] = In Vivo Toxicity of NAALADase Inhibitors (survival of mice); conditions: mouse, injected, read-out: Survival Rate After 5 days
Excerpt: The mice were subsequently observed two times per day for 5 consecutive days.

cortical cell cultures = experiment: In Vitro Toxicity of NAAG following Treatment with NAALADase Inhibitors (LDH release); type: cell-based, rat (Harlan Sprague Dawley); conditions: inhibitor 1 μM; NAAG 3 μM, n = 1
Experimental: Experiments are performed after 21 days in cultures.
At the end of exposure, the cells are washed once with HEPES buffered saline solution and then replaced with serum free modified Earle's basal medium. The cultures are then returned to the CO2 incubator for 24 hour recovery.
This control measurement is subtracted from each experimental point.

[2] = system: injury to the cortex in rats following middle cerebral artery occlusion; conditions: n = 10
Excerpt: A colony of SHRSP rats is bred at Johns Hopkins School of Medicine from three pairs of male and female rats obtained from the National Institutes of Health (Laboratory, Sciences Section, Veterinary Resources Program, National Center for Research Resources, Bethesda, Md.). All rats are kept in a virus-free environment and maintained on regular diet (NIH 31, Zeigler Bros, Inc.) with water ad libitum. All groups of rats are allowed to eat and drink water until the morning of the experiment. […]
Arterial pH and PaCO2, and partial pressure of oxygen (PaO2) are measured with a self-calibrating Radiometer electrode system (ABL 3; Copenhagen, Denmark). Hemoglobin and arterial oxygen content are measured with a hemoximeter (Radiometer, Model OSM3; Copenhagen, Denmark). Blood glucose is measured with a glucose analyzer (model 2300A, Yellow Springs Instruments, Yellow Springs, Ohio).
Each group is exposed to 2 hours of right MCA occlusion and 22 hours of reperfusion. All variables but the rectal temperature are measured at baseline, at 15 minutes and 45 minutes of right MCA occlusion. The rectal temperature is measured at baseline, at 0 and 15 min of MCA occlusion, and at 0 and 22 hours of reperfusion.

LNCAP cells = conditions: 7 days, mean +/- SEM
Experimental: On the 7th day, the cells are pulsed with 3H-thymidine for 4 hours, harvested and measured for radioactivity. Values represent means +/- SEM of 6 separate cell wells for each treatment. All experiments are performed at least twice.
LNCAP cells are obtained from Dr. William Nelson at the Johns Hopkins School of Medicine in Baltimore, Md. […] Cells are grown in RPMI-1640 media supplemented with 5% heat-inactivated fetal calf serum, 2 mM-glutamine, 100 units/ml penicillin, and 100 μg/ml streptomycin (Paragon) in a humidified incubator at 37° C. in a 5% CO2 /95% air atmosphere.
The cells are suspended at 1×10^3 cells/ml in RPMI-1640 media and seeded into 24-well plates at 500 μl per well. […] On days 3, 5 and 7, media and drug are refreshed. On the 8th day following seeding, each well is pulsed with 1 μCi ^3 H-thymidine (New England Nuclear) for 4 hours. Media is then removed and the wells washed 2 times with phosphate buffered saline (pH=7.4). […] 5 ml UltimaGold (Packard) scintillation cocktail is added and radioactivity is quantitated using a Beckman LS6001 scintillation counter.

NAALADase [3] = molecular target: T1, NAALADase (Rattus norvegicus, UniProt P70627); experiment: In Vitro Assay of NAALADase Activity ([3H]Glu liberated from [3H]NAAG, synaptosomal protein); type: biochemical; parameters: of synaptosomal protein; from tissue; host or cells: synaptosomal protein (brain tissue; rat by inference)
Experimental: Substrate and product were resolved by anion-exchange liquid chromatography. […] Quisqualate (100 μM) was included in parallel assay tubes to confirm the specificity of the measurements.

NAALADase [4] = molecular target: T1, NAALADase; conditions: substrate NAAG; cited from earlier work

T1 sequence (P70627 whole entry): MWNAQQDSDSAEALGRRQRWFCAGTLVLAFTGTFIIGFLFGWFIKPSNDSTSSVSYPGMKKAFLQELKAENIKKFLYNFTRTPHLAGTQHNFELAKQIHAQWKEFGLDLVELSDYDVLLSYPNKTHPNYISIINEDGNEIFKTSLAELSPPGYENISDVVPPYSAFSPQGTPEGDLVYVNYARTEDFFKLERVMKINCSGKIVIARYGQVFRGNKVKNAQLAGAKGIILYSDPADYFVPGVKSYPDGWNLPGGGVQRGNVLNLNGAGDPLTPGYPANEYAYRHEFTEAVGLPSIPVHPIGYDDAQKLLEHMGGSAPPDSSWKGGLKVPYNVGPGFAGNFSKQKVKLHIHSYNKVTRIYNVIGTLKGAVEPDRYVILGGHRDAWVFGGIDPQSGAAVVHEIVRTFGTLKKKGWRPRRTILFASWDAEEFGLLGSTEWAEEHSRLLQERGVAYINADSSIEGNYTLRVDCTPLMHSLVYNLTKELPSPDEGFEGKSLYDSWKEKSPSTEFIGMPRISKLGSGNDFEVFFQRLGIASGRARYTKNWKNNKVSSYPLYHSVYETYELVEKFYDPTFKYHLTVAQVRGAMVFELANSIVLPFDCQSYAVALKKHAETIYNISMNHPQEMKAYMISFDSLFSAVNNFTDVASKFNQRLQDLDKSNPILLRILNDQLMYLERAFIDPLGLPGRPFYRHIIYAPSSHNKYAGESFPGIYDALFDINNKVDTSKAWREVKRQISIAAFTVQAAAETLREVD

Compound	survival at 120 h ([1]; 1 mg/kg) [%]	survival at 120 h ([1]; 5 mg/kg) [%]	survival at 120 h ([1]; 10 mg/kg) [%]	survival at 120 h ([1]; 30 mg/kg) [%]	survival at 120 h ([1]; 100 mg/kg) [%]	survival at 120 h ([1]; 300 mg/kg) [%]	survival at 120 h ([1]; 500 mg/kg) [%]	% Toxicity (cortical cell cultures) [%]	Cortical Injury Volume ± S.E.M. ([2]; 10 mg/kg followed by 2 mg/kg/hr for 1 hour) [mm^3]	Cortical Injury Volume ± S.E.M. ([2]; 100 mg/kg followed by 20 mg/kg/hr for one hour) [mm^3]	3H-Thymidine Incorporation (LNCAP cells; dose 10 pM) [dpm/well]	3H-Thymidine Incorporation (LNCAP cells; dose 100 pM) [dpm/well]	3H-Thymidine Incorporation (LNCAP cells; dose 1 nM) [dpm/well]	3H-Thymidine Incorporation (LNCAP cells; dose 10 nM) [dpm/well]	NAALADase inhibiting activity (in words) (NAALADase [3])	Km (NAALADase [4]) [µM]
O=C(O)CCC(CP(=O)(O)O)C(=O)O (centres unmarked) [2-(phosphonomethyl)pentanedioic acid]	100	100	100	100	100	100	66.7	-4.71	135.00 ± 32.18	65.23 ± 32.18	3078 ± 1006	2062 ± 595	1001 ± 52	664 ± 366	high NAALADase inhibiting activity	–
O=C(O)CCC(CP(=O)(O)CCC(=O)O)C(=O)O (centres unmarked) [2-[[2-carboxyethyl)hydroxyphosphinol]methyl]pentanedioic acid]	–	–	–	–	–	–	–	–	–	–	–	–	–	–	lower NAALADase inhibiting activity than 2-(phosphonomethyl)pentanedioic acid	–
CC(=O)N[C@@H](CC(=O)O)C(=O)N[C@@H](CCC(=O)O)C(=O)O [NAAG, N-acetyl-aspartyl-glutamate] (Ac-Asp-Glu-OH)	–	–	–	–	–	–	–	–	–	–	–	–	–	–	–	0.54

Source: patent US5902817A, “Certain sulfoxide and sulfone derivatives” (priority 1997, dated 1999)
